Each block holds one compound with its values, some of them ahead of it.
Legend:
[1] = Dissociation constant, pKa of the compound; type: physicochemical
[2] = Lipophilicity, log P of the compound; type: physicochemical; details: octanol/water
[3] = target: T1, ATP-dependent translocase ABCB1 (Homo sapiens, UniProt P08183); experiment: Inhibition of P-glycoprotein in MDR human KBChR-8-5 cells assessed as uptake of vinblastin relative to control; type: cell-based; set-up: concentration or dose not given beside the values
[4] = target: T1, ATP-dependent translocase ABCB1; experiment: Inhibition of P-glycoprotein in MDR human KBChR-8-5 cells assessed as retention of [3H]VLB after 2 hrs; type: cell-based; set-up: concentration or dose not given beside the values
[5] = system: KB-Vi; experiment: Displacement of [3H]azidopine from human P-glycoprotein in KB-Vi cells; type: cell-based; set-up: concentration or dose not given beside the values
[6] = system: MDR; experiment: Cytotoxicity against MDR human KBChR cells; type: functional, cell-based

T1 sequence (P08183 whole entry): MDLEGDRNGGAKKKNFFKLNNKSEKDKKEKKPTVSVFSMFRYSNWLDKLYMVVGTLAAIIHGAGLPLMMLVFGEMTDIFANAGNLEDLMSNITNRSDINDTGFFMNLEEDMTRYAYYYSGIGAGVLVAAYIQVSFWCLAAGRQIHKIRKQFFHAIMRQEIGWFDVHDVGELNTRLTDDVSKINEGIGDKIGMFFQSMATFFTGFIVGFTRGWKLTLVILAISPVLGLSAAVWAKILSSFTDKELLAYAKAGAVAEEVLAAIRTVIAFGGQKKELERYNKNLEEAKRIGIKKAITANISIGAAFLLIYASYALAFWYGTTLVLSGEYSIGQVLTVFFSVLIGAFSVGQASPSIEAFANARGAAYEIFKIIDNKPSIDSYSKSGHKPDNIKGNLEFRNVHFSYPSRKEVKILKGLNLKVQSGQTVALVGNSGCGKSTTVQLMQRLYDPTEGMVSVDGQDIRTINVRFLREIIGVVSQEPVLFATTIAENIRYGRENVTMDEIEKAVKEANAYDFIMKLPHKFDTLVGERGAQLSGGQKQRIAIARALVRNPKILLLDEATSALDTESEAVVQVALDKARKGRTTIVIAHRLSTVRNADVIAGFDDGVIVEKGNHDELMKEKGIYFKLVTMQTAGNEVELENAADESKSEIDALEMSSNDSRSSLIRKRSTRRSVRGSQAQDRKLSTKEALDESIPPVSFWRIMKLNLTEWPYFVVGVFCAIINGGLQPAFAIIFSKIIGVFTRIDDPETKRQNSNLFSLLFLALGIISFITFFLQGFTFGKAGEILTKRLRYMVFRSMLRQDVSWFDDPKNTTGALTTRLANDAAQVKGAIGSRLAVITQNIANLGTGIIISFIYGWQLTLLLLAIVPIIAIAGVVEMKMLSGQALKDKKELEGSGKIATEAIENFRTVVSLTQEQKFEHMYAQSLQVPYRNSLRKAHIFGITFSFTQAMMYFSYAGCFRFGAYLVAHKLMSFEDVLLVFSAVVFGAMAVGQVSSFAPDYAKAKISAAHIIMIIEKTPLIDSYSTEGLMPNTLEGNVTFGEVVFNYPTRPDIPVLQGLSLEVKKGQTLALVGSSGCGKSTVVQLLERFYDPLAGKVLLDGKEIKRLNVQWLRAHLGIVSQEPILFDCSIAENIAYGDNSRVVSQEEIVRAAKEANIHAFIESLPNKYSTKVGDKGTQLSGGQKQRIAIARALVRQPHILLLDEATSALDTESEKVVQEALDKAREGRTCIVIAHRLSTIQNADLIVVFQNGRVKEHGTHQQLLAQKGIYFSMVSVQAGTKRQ

SMILES: O=c1c2ccccc2n(CCCCN2CCCCC2)c2ccc(Cl)cc12
pKa [1]: 5.36
logP [2]: 2.01
Activity [3]: 1855%
Activity [4]: 77%
Activity [5]: 15%
IC10 [6]: 0.6 µM
IC50 [6]: 5.2 µM

SMILES: O=c1c2ccccc2n(CCCN2CCCCC2)c2ccc(Cl)cc12
pKa [1]: 5.39
logP [2]: 1.52
Activity [3]: 927%
Activity [4]: 54.5%
Activity [5]: 50%
IC10 [6]: 1.25 µM
IC50 [6]: 15.5 µM

SMILES: O=c1c2ccccc2n(CCCN2CCOCC2)c2ccc(Cl)cc12
pKa [1]: 4.87
logP [2]: 1.64
Activity [3]: 1372%
Activity [4]: 62%
Activity [5]: 30%
IC10 [6]: 1.15 µM
IC50 [6]: 10.5 µM

SMILES: CCN(CC)CCCCn1c2ccccc2c(=O)c2cc(Cl)ccc21
pKa [1]: 5.45
logP [2]: 1.9
Activity [3]: 1356%
Activity [4]: 77.2%
Activity [5]: 20%
IC10 [6]: 0.62 µM
IC50 [6]: 9.1 µM

SMILES: O=c1c2ccccc2n(CCCCN(CCO)CCO)c2ccc(Cl)cc12
pKa [1]: 4.8
logP [2]: 1.67
Activity [3]: 1219%
Activity [4]: 74%
Activity [5]: 20%
IC10 [6]: 0.6 µM
IC50 [6]: 5 µM

SMILES: O=c1c2ccccc2[nH]c2ccc(Cl)cc12
pKa [1]: 8.29
logP [2]: 2.06
Activity [3]: 715%
Activity [4]: 49%
Activity [5]: 85%
IC10 [6]: 1.41 µM
IC50 [6]: 18 µM

SMILES: O=c1c2ccccc2n(CCCN2CCCC2)c2ccc(Cl)cc12
pKa [1]: 5.21
logP [2]: 1.55
Activity [3]: 988%
Activity [4]: 56%
Activity [5]: 50%
IC10 [6]: 0.9 µM
IC50 [6]: 14 µM

SMILES: O=c1c2ccccc2n(CCCCCl)c2ccc(Cl)cc12
pKa [1]: 8.85
logP [2]: 1.68
Activity [3]: 982%
Activity [4]: 60.5%
Activity [5]: 70%
IC10 [6]: 1.25 µM
IC50 [6]: 10.8 µM

SMILES: O=c1c2ccccc2n(CCCN(CCO)CCO)c2ccc(Cl)cc12
pKa [1]: 4.8
logP [2]: 1.47
Activity [3]: 1017%
Activity [4]: 66%
Activity [5]: 40%
IC10 [6]: 1.2 µM
IC50 [6]: 8.7 µM

SMILES: CCN(CC)CCCn1c2ccccc2c(=O)c2cc(Cl)ccc21
pKa [1]: 5.37
logP [2]: 1.54
Activity [3]: 948%
Activity [4]: 47%
Activity [5]: 80%
IC10 [6]: 1 µM
IC50 [6]: 12.5 µM

SMILES: O=c1c2ccccc2n(CCCCl)c2ccc(Cl)cc12
pKa [1]: 8.65
logP [2]: 1.38
Activity [3]: 880%
Activity [4]: 40%
Activity [5]: 83%
IC10 [6]: 1.35 µM
IC50 [6]: 15 µM

Continued, in another order:

pKa [1]: 5.61
logP [2]: 1.95
Activity [3]: 1420%
Activity [4]: 75%
SMILES: CN1CCN(CCCCn2c3ccccc3c(=O)c3cc(Cl)ccc32)CC1
Activity [5]: 20%
IC10 [6]: 0.8 µM
IC50 [6]: 8 µM

pKa [1]: 5.28
logP [2]: 1.74
Activity [3]: 1010%
Activity [4]: 79%
SMILES: O=c1c2ccccc2n(CCCCN2CCCC2)c2ccc(Cl)cc12
Activity [5]: 30%
IC10 [6]: 1.85 µM
IC50 [6]: 12.5 µM

pKa [1]: 4.91
logP [2]: 1.89
Activity [3]: 1690%
Activity [4]: 76%
SMILES: O=c1c2ccccc2n(CCCCN2CCOCC2)c2ccc(Cl)cc12
Activity [5]: 15%
IC10 [6]: 0.72 µM
IC50 [6]: 6 µM

pKa [1]: 5.26
logP [2]: 1.76
Activity [3]: 1252%
Activity [4]: 56.5%
SMILES: O=c1c2ccccc2n(CCCN2CCN(CCO)CC2)c2ccc(Cl)cc12
Activity [5]: 35%
IC10 [6]: 0.74 µM
IC50 [6]: 7.5 µM

pKa [1]: 5.26
logP [2]: 2.25
Activity [3]: 2010%
Activity [4]: 80.5%
SMILES: O=c1c2ccccc2n(CCCCN2CCN(CCO)CC2)c2ccc(Cl)cc12
Activity [5]: 10%
IC10 [6]: 0.46 µM
IC50 [6]: 4.5 µM

pKa [1]: 5.28
logP [2]: 1.48
Activity [3]: 1010%
Activity [4]: 51%
SMILES: CN1CCN(CCCn2c3ccccc3c(=O)c3cc(Cl)ccc32)CC1
Activity [5]: 45%
IC10 [6]: 0.8 µM
IC50 [6]: 9 µM
